{"source": "patent US20140335050A1", "about": "“METHODS, COMPOSITIONS, AND KITS FOR THE TREATMENT OF CANCER” (The General Hospital Corporation, priority 2011, published 2014)", "key": {"[1]": {"test_system": "B16 murine melanoma cell line", "experiment": "Antibody staining and flow cytometry (intracellular gp100, TRP-2; surface Class I with H2kb antibody)", "assay_type": "cell-based, mouse", "details": "3 days, 17-AEP 0.5, PU-H71 0.15, CCT018159 2.5 μg/ml", "excerpt": "To further evaluate enhancement of immune recognition of cancer cells by inhibition of Hsp90 function, it was shown that a total of twelve different Hsp90 inhibitors were active in several molecular and cellular assays on a series of cell lines, including eleven human melanomas, the murine B16 melanoma, and two human gliomas. […] The melanomas all express varying levels of differentiation antigens Melan-A/MART-1, gp100 and TRP-2, as well as the MHC-Class I antigen (as evidenced by W6/32 antibody staining) that is required for T cell recognition of the tumor cells. Each of these antigens is enhanced by all of the Hsp90 inhibitors. […] Similar to the human counterparts, the B16 mouse tumor also can be induced to express enhanced antigen levels upon 3-day exposure to each of the Hsp90 inhibitors (Table 16). The mouse H-2 Class I antigen is likewise induced by the Hsp90 inhibitors.\nGeneral culture conditions for cell propagation and the origins of most of the melanoma cell lines have been previously described. Melanoma cells were cultured in DMEM with 10% FBS. The glioma cell lines U87 MG and U118 MG were obtained from the American Type Culture Collection (ATCC). The B16 murine melanoma cell line was provided by Dr. Andrew Hurwitz and has been previously described. The T cell receptor (TCR)-negative Jurkat T cell line derivative J.RT3-T3.5 was obtained from ATCC. The construction of the J.RT3-T3.5 cell line expressing a Melan-A/MART-1 specific TCR has been described previously. T cells were cultured in RPMI with 10% FBS. IFN-beta-1a (Avonex) was obtained from Biogen-Idec (Cambridge, Mass.) and reconstituted according to the manufacturer's recommendations. The Hsp90 inhibitor radicicol was purchased from A.G. Scientific (San Diego, Calif.). Novobiocin was ordered from BioMol (Plymouth Meeting, Pa.). 17-DMAG was obtained from LC laboratories (Woburn, Mass.). 17-AEP-AP was purchased from InVivoGen (San Diego, Calif.). […] Gedunin, CCT018159, and celastrol were purchased from Tocris (Ellisville, Mo.). Selleck Chemicals (Houston, Tex.) provided NVP-AUY922 and BIIB021.\nCells were plated at a density of 1×10^5 in 1 ml of medium in a 24-well plate and cultured for varying times as indicated in results. Typically, 3 days of culture in the presence of Hsp90 inhibitors was optimal for the functional studies performed. After incubation, cells were collected by trypsinization and then evaluated by flow cytometry.\n(§1) Intracellular staining and flow cytometric analyses of cytoplasmic Melan-A/MART-1, and gp100 expression were performed as described previously. Cells were fixed with 1% formaldehyde, permeabilized with 0.1% saponin, stained with monoclonal antibodies to melanocyte antigens. Antibodies were obtained with specificity for: Melan-A/MART-1 from Vector Labs (Burlingame, Calif.); gp100/HMB45 from DakoCytomation (Carpinteria, Calif.) and then visualized with goat anti-mouse FITC-conjugated secondary antibody from Invitrogen (Frederick, Md.). The level of EGFP was determined by flow cytometry of unfixed cells washed and resuspended in 1×PBS. Surface staining of MHC Class I was carried out using the antibody W6/32 on cells harvested with Cell Stripper from MediaTech Inc. (Manassas, Va.) and carried out on ice."}, "MU89 melanoma cell line": {"test_system": "MU89 melanoma cell line", "experiment": "Antibody staining and flow cytometry (intracellular Melan-A/MART-1, gp100, TRP-2; surface MHC Class I/II)", "assay_type": "cell-based, human", "details": "MU89", "protocol": "(§2) Cells were fixed with 1% formaldehyde, permeabilized with 0.1% saponin, stained with monoclonal antibodies to melanocyte antigens. Antibodies were obtained with specificity for: MART-1 from Vector Labs (Burlingame, Calif.); gp100 HMB45 from DakoCytomation (Carpinteria, Calif.) and then visualized with goat anti-mouse FITC-conjugated secondary antibody from Invitrogen (Fredrick, Md.). The level of EGFP was determined by flow cytometry of unfixed cells that were washed and resuspended in 1×PBS.\n(§3) Cells were plated at a density of 1×10^5 in 1 ml of medium in a 24-well plate and cultured for varying times as indicated in results. […] After incubation, cells were collected by trypsinization and then evaluated by flow cytometry.\nas §1\n(§4) Cell were seeded at 1×10^6 cells in a T25 flask with 10 ml of media for the 4 day IFN-beta pre-treatments. Cells were then harvested and plated in 24 well plate at 1×10^5 cells per well in 1 ml of media for 3 day treatments.\n(§5) For surface staining of HLA Class I and II antigens, cells were harvested using CellStripper™ from Mediatech (Manassas, Va.). All staining steps were performed on ice. Following a first incubation with antibody to Class I (W6/32) or Class II (L243) for 30 minutes. Stained cells were washed twice with cold PBS and then stained with a goat anti-mouse FITC secondary antibody to allow for quantitative analysis by flow cytometry. For evaluation of cytoplasmic antigens, including Melan-A/MART-1 and gp100, cells were first fixed in paraformaldehyde and permeabilized with saponin as previously described. Staining for cytoplasmic antigens was carried out at room temperature (22° C.)."}, "U-87 MG glioma cell line": {"test_system": "U-87 MG glioma cell line", "experiment": "Antibody staining and flow cytometry (intracellular gp100; surface MHC Class I)", "assay_type": "cell-based, human", "details": "U-87 MG; 3 days; IFN-beta 5000 Units/ml, 17-AEP 0.5, PU-H71 0.3, CCT018159 5.0 μg/ml", "protocol": "as §2, §3, §1"}, "A375 melanoma cell line": {"test_system": "A375 melanoma cell line", "experiment": "Antibody staining and flow cytometry (intracellular Melan-A/MART-1, gp100, TRP-2; surface MHC Class I)", "assay_type": "cell-based, human", "protocol": "as §2, §3, §1, §4, §5"}, "MUX melanoma cell line": {"test_system": "MUX melanoma cell line", "experiment": "Antibody staining and flow cytometry (intracellular Melan-A/MART-1, gp100, TRP-2; surface MHC Class I)", "assay_type": "cell-based, human", "details": "MUX", "protocol": "as §2, §3, §1, §4, §5"}, "[2]": {"details": "3 days, IFN-beta 5000 Units/ml, 17-AEP 1.0, PU-H71 0.3, CCT018159 10.0 μg/ml"}, "[3]": {"details": "4 day IFN-β pre-treatment (5000 Units/ml), then 3 days with fresh IFN-β and the labelled HSP90 inhibitor (label IFN-β: no inhibitor), 17-AEP 1, PU-H71 0.3, CCT018159 10 mg/ml"}, "[4]": {"details": "4 day IFN-β pre-treatment (5000 Units/ml), then 3 days without IFN-β with the labelled HSP90 inhibitor (label IFN-β: no inhibitor), 17-AEP 1, PU-H71 0.3, CCT018159 10 mg/ml"}, "[5]": {"details": "3 days, IFN-beta 5000 Units/ml, 17-AEP 0.5, PU-H71 0.15, CCT018159 2.5 μg/ml"}}}
{"smiles": "CO[C@H]1/C=C\\C=C(/C)C(=O)NC2=CC(=O)C(NCCN3CCCC3)=C(C[C@@H](C)C[C@H](OC)[C@H](O)[C@@H](C)/C=C(\\C)[C@@H]1OC(N)=O)C2=O", "note": "[17-AEP]", "values": [{"measurement": "Class I, geometric mean of surface staining (H2kb)", "setting": "[1]", "result": 13}, {"measurement": "TRP-2, geometric mean of intracellular staining", "setting": "[1]", "result": 288}, {"measurement": "gp100, geometric mean of intracellular staining", "setting": "[1]", "result": 420}, {"measurement": "Class I, geometric mean of surface staining (W6/32)", "setting": "MU89 melanoma cell line; [2]", "result": 54}, {"measurement": "MART-1, geometric mean of intracellular staining", "setting": "MU89 melanoma cell line; [2]", "result": 130}, {"measurement": "TRP-2, geometric mean of intracellular staining", "setting": "MU89 melanoma cell line; [2]", "result": 144}, {"measurement": "gp100, geometric mean of intracellular staining", "setting": "MU89 melanoma cell line; [2]", "result": 342}, {"measurement": "MHC Class I, geometric mean of surface staining (W6/32)", "setting": "MU89 melanoma cell line; [3]", "result": 227}, {"measurement": "MHC Class I, geometric mean of surface staining (W6/32)", "setting": "MU89 melanoma cell line; [4]", "result": 86}, {"measurement": "MHC Class I, geometric mean of surface staining (W6/32)", "setting": "MU89 melanoma cell line; single agent for 3 days, no IFN-β pre-treatment, IFN-β 5000 Units/ml", "result": 84}, {"measurement": "MHC Class I, geometric mean of surface staining (W6/32)", "setting": "MU89 melanoma cell line; three days, IFN-β 5000 Units/ml", "result": 54}, {"measurement": "Class I, geometric mean of surface staining (W6/32)", "setting": "U-87 MG glioma cell line", "result": 66}, {"measurement": "gp100, geometric mean of intracellular staining", "setting": "U-87 MG glioma cell line", "result": 51}, {"measurement": "Class I, geometric mean of surface staining (W6/32)", "setting": "A375 melanoma cell line; [5]", "result": 67}, {"measurement": "MART-1, geometric mean of intracellular staining", "setting": "A375 melanoma cell line; [5]", "result": 11}, {"measurement": "TRP-2, geometric mean of intracellular staining", "setting": "A375 melanoma cell line; [5]", "result": 31}, {"measurement": "gp100, geometric mean of intracellular staining", "setting": "A375 melanoma cell line; [5]", "result": 22}, {"measurement": "MHC Class I, geometric mean of surface staining (W6/32)", "setting": "A375 melanoma cell line; 4 day IFN-β pre-treatment (5000 Units/ml), then 3 days with fresh IFN-β and the labelled HSP90 inhibitor (label IFN-β: no inhibitor), 17-AEP 0.5, PU-H71 0.15, CCT018159 2.5", "result": 144}, {"measurement": "MHC Class I, geometric mean of surface staining (W6/32)", "setting": "A375 melanoma cell line; 4 day IFN-β pre-treatment (5000 Units/ml), then 3 days without IFN-β with the labelled HSP90 inhibitor (label IFN-β: no inhibitor), 17-AEP 0.5, PU-H71 0.15, CCT018159 2.5", "result": 90}, {"measurement": "MHC Class I, geometric mean of surface staining (W6/32)", "setting": "A375 melanoma cell line; single agent for 3 days, no IFN-β pre-treatment, IFN-β 5000 Units/ml, 17-AEP 0.5, PU-H71 […], CCT018159 2.5", "result": 109}, {"measurement": "MHC Class I, geometric mean of surface staining (W6/32)", "setting": "A375 melanoma cell line; three days, IFN-β 5000 Units/ml, 17-AEP 0.5, PU-H71 […], CCT018159 2.5", "result": 67}, {"measurement": "Class I, geometric mean of surface staining (W6/32)", "setting": "MUX melanoma cell line; [2]", "result": 219}, {"measurement": "MART-1, geometric mean of intracellular staining", "setting": "MUX melanoma cell line; [2]", "result": 19}, {"measurement": "TRP-2, geometric mean of intracellular staining", "setting": "MUX melanoma cell line; [2]", "result": 48}, {"measurement": "gp100, geometric mean of intracellular staining", "setting": "MUX melanoma cell line; [2]", "result": 34}, {"measurement": "MHC Class I, geometric mean of surface staining (W6/32)", "setting": "MUX melanoma cell line; [3]", "result": 615}, {"measurement": "MHC Class I, geometric mean of surface staining (W6/32)", "setting": "MUX melanoma cell line; [4]", "result": 496}, {"measurement": "MHC Class I, geometric mean of surface staining (W6/32)", "setting": "MUX melanoma cell line; single agent for 3 days, no IFN-β pre-treatment, IFN-β 5000 Units/ml, 17-AEP 1 μg/ml, PU-H71 0.3 μg/ml, CCT018159 10 μg/ml", "result": 286}]}
